Experimental data published in the supplement of paper PMC10307832.

Experiments:
Test in all cases: relative viability (nuclei count vs DMSO), 5 days (fraction); higher = more cells survive
[1] = test system: NCI-H1755
In short: (§1)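 After 5 days of treatment, lung cancer cells in 1536-well plates were fixed and stained in a single step (final 0.05% Triton X-100, 1% formaldehyde, 1 ug/ml Hoechst) and their nuclei counted on 4× images. Treatment had been applied by pin tool the day after seeding as one drug alone or as a fixed anchor-drug dose with five library-drug doses (not always all listed) in √10 steps. Relative viability is the nuclei count of treated wells divided by that of vehicle wells, and values are medians of duplicate plates.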

[2] = test system: NCI-H2023
In short: as §1

[3] = test system: NCI-H1734
In short: as §1

[4] = test system: LU99A
In short: as §1

[5] = test system: NCI-H460
In short: as §1

[6] = test system: HCC-44
In short: as §1

[7] = test system: LOU-NH91
In short: as §1

[8] = test system: HCC-366
In short: as §1

[9] = test system: NCI-H1437
In short: as §1

[10] = test system: NCI-H1355
In short: as §1

[11] = test system: NCI-H1650
In short: as §1

[12] = test system: NCI-H358
In short: as §1

[13] = test system: NCI-H2085
In short: as §1

[14] = test system: NCI-H838
In short: as §1

[15] = test system: CAL-12T
In short: as §1

[16] = test system: NCI-H1975
In short: as §1

[17] = test system: EKVX
In short: as §1

[18] = test system: NCI-H1395
In short: as §1

[19] = test system: NCI-H2342
In short: as §1

[20] = test system: BEN
In short: as §1

[21] = test system: NCI-H1651
In short: as §1

[22] = test system: NCI-H441
In short: as §1

With `O=C(O)c1ccc(-c2c[nH]c3ncc(-c4ccccc4)cc23)cc1C1CCCC1` + CC(=O)c1c(C)c2cnc(Nc3ccc(N4CCNCC4)cn3)nc2n(C2CCCC2)c1=O [Palbociclib] (partner 0.5 µM) the relative viability ([1]; first compound 0.04 µM) was 0.434, the relative viability ([1]; first compound 0.1265 µM) was 0.495 and the relative viability ([1]; first compound 0.4 µM) was 0.417. The relative viability ([1]; first compound 1.265 µM) was 0.48, the relative viability ([2]; first compound 0.04 µM) was 0.407 and the relative viability ([2]; first compound 0.1265 µM) was 0.394. The relative viability ([2]; first compound 0.4 µM) was 0.358, the relative viability ([2]; first compound 1.265 µM) was 0.312 and the relative viability ([3]; first compound 0.04 µM) was 0.324. The relative viability ([3]; first compound 0.1265 µM) was 0.328, the relative viability ([3]; first compound 0.4 µM) was 0.302 and the relative viability ([3]; first compound 1.265 µM) was 0.344. For the same molecule, the relative viability ([4]; first compound 0.04 µM) was 0.43, the relative viability ([4]; first compound 0.1265 µM) was 0.439 and the relative viability ([4]; first compound 0.4 µM) was 0.375. It also gave a relative viability ([4]; first compound 1.265 µM) of 0.344, a relative viability ([5]; first compound 0.04 µM) of 0.274 and a relative viability ([5]; first compound 0.1265 µM) of 0.203. The relative viability ([5]; first compound 0.4 µM) was 0.23, the relative viability ([5]; first compound 1.265 µM) was 0.146 and the relative viability ([6]; first compound 0.04 µM) was 0.967. For the same molecule, the relative viability ([6]; first compound 0.1265 µM) was 0.938, the relative viability ([6]; first compound 0.4 µM) was 0.875 and the relative viability ([6]; first compound 1.265 µM) was 0.805. The relative viability ([7]; first compound 0.04 µM) was 0.593, the relative viability ([7]; first compound 0.1265 µM) was 0.517 and the relative viability ([7]; first compound 0.4 µM) was 0.525. It also gave a relative viability ([7]; first compound 1.265 µM) of 0.469, a relative viability ([8]; first compound 0.04 µM) of 0.442 and a relative viability ([8]; first compound 0.1265 µM) of 0.43. It also gave a relative viability ([8]; first compound 0.4 µM) of 0.416, a relative viability ([8]; first compound 1.265 µM) of 0.346 and a relative viability ([9]; first compound 0.04 µM) of 0.326. For the same molecule, the relative viability ([9]; first compound 0.1265 µM) was 0.319, the relative viability ([9]; first compound 0.4 µM) was 0.311 and the relative viability ([9]; first compound 1.265 µM) was 0.193. It also gave a relative viability ([10]; first compound 0.04 µM) of 0.393, a relative viability ([10]; first compound 0.1265 µM) of 0.406 and a relative viability ([10]; first compound 0.4 µM) of 0.407. It also gave a relative viability ([10]; first compound 1.265 µM) of 0.395, a relative viability ([11]; first compound 0.04 µM) of 0.34 and a relative viability ([11]; first compound 0.1265 µM) of 0.285. For the same molecule, the relative viability ([11]; first compound 0.4 µM) was 0.321, the relative viability ([11]; first compound 1.265 µM) was 0.193 and the relative viability ([12]; first compound 0.04 µM) was 0.128. The relative viability ([12]; first compound 0.1265 µM) was 0.12, the relative viability ([12]; first compound 0.4 µM) was 0.124 and the relative viability ([12]; first compound 1.265 µM) was 0.0876. The relative viability ([13]; first compound 0.04 µM) was 0.448, the relative viability ([13]; first compound 0.1265 µM) was 0.476 and the relative viability ([13]; first compound 0.4 µM) was 0.457. It also gave a relative viability ([13]; first compound 1.265 µM) of 0.349, a relative viability ([14]; first compound 0.04 µM) of 0.189 and a relative viability ([14]; first compound 0.1265 µM) of 0.267. The relative viability ([14]; first compound 0.4 µM) was 0.214, the relative viability ([14]; first compound 1.265 µM) was 0.215 and the relative viability ([15]; first compound 0.04 µM) was 0.496. The relative viability ([15]; first compound 0.1265 µM) was 0.442, the relative viability ([15]; first compound 0.4 µM) was 0.499 and the relative viability ([15]; first compound 1.265 µM) was 0.384. It also gave a relative viability ([16]; first compound 0.04 µM) of 0.588, a relative viability ([16]; first compound 0.1265 µM) of 0.55 and a relative viability ([16]; first compound 0.4 µM) of 0.585. It also gave a relative viability ([16]; first compound 1.265 µM) of 0.475, a relative viability ([17]; first compound 0.04 µM) of 0.444 and a relative viability ([17]; first compound 0.1265 µM) of 0.379. For the same molecule, the relative viability ([17]; first compound 0.4 µM) was 0.233, the relative viability ([17]; first compound 1.265 µM) was 0.362 and the relative viability ([18]; first compound 0.04 µM) was 0.567. The relative viability ([18]; first compound 0.1265 µM) was 0.66, the relative viability ([18]; first compound 0.4 µM) was 0.618 and the relative viability ([18]; first compound 1.265 µM) was 0.567. It also gave a relative viability ([19]; first compound 0.04 µM) of 0.465, a relative viability ([19]; first compound 0.1265 µM) of 0.568 and a relative viability ([19]; first compound 0.4 µM) of 0.479. The relative viability ([19]; first compound 1.265 µM) was 0.517, the relative viability ([20]; first compound 0.04 µM) was 0.459 and the relative viability ([20]; first compound 0.1265 µM) was 0.422. For the same molecule, the relative viability ([20]; first compound 0.4 µM) was 0.455, the relative viability ([20]; first compound 1.265 µM) was 0.454 and the relative viability ([21]; first compound 0.04 µM) was 0.534. It also gave a relative viability ([21]; first compound 0.1265 µM) of 0.524, a relative viability ([21]; first compound 0.4 µM) of 0.514 and a relative viability ([21]; first compound 1.265 µM) of 0.475. The relative viability ([22]; first compound 0.04 µM) was 0.248, the relative viability ([22]; first compound 0.1265 µM) was 0.232 and the relative viability ([22]; first compound 0.4 µM) was 0.223. It also gave a relative viability ([22]; first compound 1.265 µM) of 0.22.
